The text below walks through data of patent publication US9006487B2, “Amine-containing lipids and uses thereof” (Massachusetts Institute of Technology, priority 2005, dated 2015).

This assay concerns cos-7 cells. Nature of the assay: DNA transfection: luciferase expression relative to Lipofectamine 2000. It is filed as cell-based. Particulars: 300 ng Luciferase DNA per well, luciferase assay after 48 hours. The method in brief: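 cos-7 cells were transfected with 300 ng/well luciferase DNA complexed with lipid at ratios from 2.5 to 25 w/w. Bright-Glo luminescence was read after 48 hours and converted to ng luciferase by standard curve. Data are percent of the Lipofectamine 2000 control (2.5 w/w).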

Each structure is given as a SMILES string. Where “and” joins values, the source holds several entries; their conditions need not be identical. Equal values may be shown once.

With `CCCCCCCCCCCCCCOC(=O)CCN(CCC(=O)OCCCCCCCCCCCCCC)C[C@H](C)O` [LF22], the “Luciferase expression as a percentage of that achieved using Lipofectamine 2000” value (“Luciferase expression as a percentage” for short) by setting is: (lipid/DNA 2.5 w/w) 0.1%; (lipid/DNA 5 w/w) 0.1%; (lipid/DNA 10 w/w) 0.1%; (lipid/DNA 15 w/w) 0.1%; (lipid/DNA 20 w/w) 0.1%; (lipid/DNA 25 w/w) 0.1%.
In the case of `CCCCCCCCCCCCCCCOC(=O)CC[N+](C)(CCC(=O)OCCCCCCCCCCCCCCC)CCC1CCC[N+]1(C)C.[I-].[I-]` (centres unmarked) [QG77], the “Luciferase expression as a percentage” value was 0.5% (lipid/DNA 2.5 w/w); 0.6% (lipid/DNA 5 w/w); 1.5% (lipid/DNA 10 w/w); 5.6% (lipid/DNA 15 w/w); 18.8% (lipid/DNA 20 w/w); 29.5% (lipid/DNA 25 w/w).
As to `CCCCCCCCCCCCCCOC(=O)CCN(CCCCO)CCC(=O)OCCCCCCCCCCCCCC` [LF28], the “Luciferase expression as a percentage” value (lipid/DNA 2.5 w/w) is listed as 0.1%; the “Luciferase expression as a percentage” value (lipid/DNA 5 w/w) stood at 0.1%; the “Luciferase expression as a percentage” value (lipid/DNA 10 w/w) was 0.1%; the “Luciferase expression as a percentage” value (lipid/DNA 15 w/w) is 0.2%; the “Luciferase expression as a percentage” value (lipid/DNA 20 w/w) amounted to 0.3%; the “Luciferase expression as a percentage” value (lipid/DNA 25 w/w) was found to be 0.4%.
Consider `CCCCCCCCCCOC(=O)CCN(CCC(=O)OCCCCCCCCCC)CC(C)(C)CO` [LB33], for which the “Luciferase expression as a percentage” value reads like this: (lipid/DNA 2.5 w/w) 0.1%; (lipid/DNA 5 w/w) 0.1%; (lipid/DNA 10 w/w) 0.1%; (lipid/DNA 15 w/w) 0.1%; (lipid/DNA 20 w/w) 0.1%; (lipid/DNA 25 w/w) 0.1%.
For `CCCCCCCCCCCCCCOC(=O)CCN(CCC(=O)OCCCCCCCCCCCCCC)CC1CCCO1` (centres unmarked) [LF15], the “Luciferase expression as a percentage” value is, setting by setting: (lipid/DNA 2.5 w/w) 0.1%; (lipid/DNA 5 w/w) 0.1%; (lipid/DNA 10 w/w) 0.0%; (lipid/DNA 15 w/w) 0.0%; (lipid/DNA 20 w/w) 0.1%; (lipid/DNA 25 w/w) 0.1%.
`CCCCCCCCCCCCCOC(=O)CCN(CC)CCCN(CC)CCC(=O)OCCCCCCCCCCCCC` [LE64]: the “Luciferase expression as a percentage” value (lipid/DNA 2.5 w/w) is recorded as 0.1%; the “Luciferase expression as a percentage” value (lipid/DNA 5 w/w) was found to be 0.1%; the “Luciferase expression as a percentage” value (lipid/DNA 10 w/w) is listed as 0.1%; the “Luciferase expression as a percentage” value (lipid/DNA 15 w/w) is 0.0%; the “Luciferase expression as a percentage” value (lipid/DNA 20 w/w) is 0.1%; the “Luciferase expression as a percentage” value (lipid/DNA 25 w/w) is 0.1%.
`CCCCCCCCCCCCNC(=O)CCN(CCC(=O)NCCCCCCCCCCCC)CCN(CCO)CCO` [ND86]: the “Luciferase expression as a percentage” value is on record as 0.5% (lipid/DNA 2.5 w/w); 0.2% (lipid/DNA 5 w/w); 0.0% (lipid/DNA 10 w/w); 0.0% (lipid/DNA 15 w/w); 0.0% (lipid/DNA 20 w/w); 0.0% (lipid/DNA 25 w/w).
Take `CCCCCCCCCCCCCCOC(=O)CCN(CCC(=O)OCCCCCCCCCCCCCC)CC1COC(C)(C)O1` (centres unmarked) [LF7]: the “Luciferase expression as a percentage” value reads like this: (lipid/DNA 2.5 w/w) 0.1%; (lipid/DNA 5 w/w) 0.1%; (lipid/DNA 10 w/w) 0.0%; (lipid/DNA 15 w/w) 0.0%; (lipid/DNA 20 w/w) 0.1%; (lipid/DNA 25 w/w) 0.1%.
On to `CCCCCCCCCCCCCCCOC(=O)CCN(CCCN(CC)CC)CCC(=O)OCCCCCCCCCCCCCCC` [LG81], for which the “Luciferase expression as a percentage” value is listed as 0.7% (lipid/DNA 2.5 w/w); 0.8% (lipid/DNA 5 w/w); 1.2% (lipid/DNA 10 w/w); 4.1% (lipid/DNA 15 w/w); 14.8% (lipid/DNA 20 w/w); 19.9% (lipid/DNA 25 w/w).
As to `CCCCCCCCCCCCCCOC(=O)CCN(CCOCC)CCC(=O)OCCCCCCCCCCCCCC` [LF11], the “Luciferase expression as a percentage” value runs as follows: (lipid/DNA 2.5 w/w) 0.1%; (lipid/DNA 5 w/w) 0.1%; (lipid/DNA 10 w/w) 0.0%; (lipid/DNA 15 w/w) 0.0%; (lipid/DNA 20 w/w) 0.1%; (lipid/DNA 25 w/w) 0.1%.
Turning to `CCCCCCCCCCOC(=O)CCN(CCCCO)CCC(=O)OCCCCCCCCCC` [LB28], the “Luciferase expression as a percentage” value was 0.1% (lipid/DNA 2.5 w/w); 0.1% (lipid/DNA 5 w/w); 0.1% (lipid/DNA 10 w/w); 0.1% (lipid/DNA 15 w/w); 0.1% (lipid/DNA 20 w/w); 0.1% (lipid/DNA 25 w/w).
Take `CCCCCCCCCCCCOC(=O)CC[N+](C)(CCC(=O)OCCCCCCCCCCCC)CC[N+](C)(CCO)CCO.[I-].[I-]` [QD86]: the “Luciferase expression as a percentage” value is recorded as 2.0% (lipid/DNA 10 w/w) and 2.0% (lipid/DNA 15 w/w).
Regarding `CCCCCCCCCCOC(=O)CC[N+](C)(CCC(=O)OCCCCCCCCCC)CCC1OCCO1.[I-]` [QB6], the “Luciferase expression as a percentage” value is recorded as 0.0% (lipid/DNA 2.5 w/w); 0.0% (lipid/DNA 5 w/w); 0.0% (lipid/DNA 10 w/w); 0.0% (lipid/DNA 15 w/w); 0.0% (lipid/DNA 20 w/w); 0.0% (lipid/DNA 25 w/w).
Take `CCCCCCCCCCOC(=O)CCN(CCC(=O)OCCCCCCCCCC)C(CC)(CO)CO` [LB34]: the “Luciferase expression as a percentage” value by setting is: (lipid/DNA 2.5 w/w) 0.1%; (lipid/DNA 5 w/w) 0.1%; (lipid/DNA 10 w/w) 0.2%; (lipid/DNA 15 w/w) 0.4%; (lipid/DNA 20 w/w) 0.1%; (lipid/DNA 25 w/w) 0.1%.
With `CCCCCCCCCCCCCCOC(=O)CCN(CCC(=O)OCCCCCCCCCCCCCC)CC(O)CO` (centres unmarked) [LF24], the “Luciferase expression as a percentage” value reads like this: (lipid/DNA 2.5 w/w) 0.1%; (lipid/DNA 5 w/w) 0.1%; (lipid/DNA 10 w/w) 0.1%; (lipid/DNA 15 w/w) 0.2%; (lipid/DNA 20 w/w) 0.3%; (lipid/DNA 25 w/w) 0.3%.
Turning to `CCCCCCCCCCOC(=O)CCN(CCOCC)CCC(=O)OCCCCCCCCCC` [LB11], the “Luciferase expression as a percentage” value is, setting by setting: (lipid/DNA 2.5 w/w) 0.1%; (lipid/DNA 5 w/w) 0.1%; (lipid/DNA 10 w/w) 0.1%; (lipid/DNA 15 w/w) 0.1%; (lipid/DNA 20 w/w) 0.1%; (lipid/DNA 25 w/w) 0.1%.
In the case of `CCCCCCCCCCOC(=O)CCN(CCC(=O)OCCCCCCCCCC)CCN(CC)CC` [LB75], the “Luciferase expression as a percentage” value worked out at 0.1% (lipid/DNA 2.5 w/w); 0.1% (lipid/DNA 5 w/w); 0.1% (lipid/DNA 10 w/w); 0.1% (lipid/DNA 15 w/w); 0.1% (lipid/DNA 20 w/w); 0.1% (lipid/DNA 25 w/w).
Turning to `CCCCCCCCCCCCCCOC(=O)CCN(CCC(=O)OCCCCCCCCCCCCCC)CCN1CCOCC1` [LF90], the “Luciferase expression as a percentage” value reads like this: (lipid/DNA 2.5 w/w) 0.4% and 0.5%; (lipid/DNA 5 w/w) 0.5% and 0.4%; (lipid/DNA 10 w/w) 0.3% and 0.7%; (lipid/DNA 15 w/w) 1.3% and 0.4%; (lipid/DNA 20 w/w) 1.1% and 0.4%; (lipid/DNA 25 w/w) 1.5% and 0.4%.
